Data published in patent US7683168B2, “Compositions of novel opioid compounds and method of use thereof” (priority 2005, dated 2010).

Key:
human delta receptor = molecular target: T1, human delta receptor (Homo sapiens, UniProt P41143); test: radioligand binding, human delta receptor, HEK-293 cell membranes; settings: cell not marked (rat), species not given, read-out: δ
T1 construct: purchased Perkin Elmer, Boston, Mass; 6110549; host or cells: HEK-293 cells

mouse vas deferens = test: electrically stimulated mouse vas deferens (MVD) ED50; type: cell-based; settings: ED50, inhibition of electrically induced contractions
[1] = tested on: seizure-like convulsions in mice; test: mouse seizure-like convulsions; type: in vivo
Description: Mouse Seizure-Like Convulsions and antinociception: The central (CNS) effects of the compound were tested with central delta receptor mediated seizure-like convulsions and central mu opioid receptor mediated antinociceptive effects in mice. Male CD-1 mice (Charles River, Raleigh, N.C.) weighing 20-25 g were used to determine the seizure-like convulsion and antinociception activities for compounds.
They were then observed for seizure-like convulsions for one hour following the treatment. A seizure-like event was recorded if a mouse had uncontrollable clonic (or tonic/clonic) muscle movements that encompassed its entire body, usually followed by a brief cataleptic period. Catalepsy was determined by placing the animal's front paws on a horizontal bar held 2-3 inches from the cage floor. Cataleptic animals made no attempt to remove their paws.

human mu opioid receptor = molecular target: T2, human mu opioid receptor (Homo sapiens, UniProt P35372); test: radioligand binding, human mu opioid receptor, CHO cell membranes; settings: species not given, read-out: μ
T2 construct: purchased Perkin Elmer, Boston, Mass; 6110535; host or cells: CHO cells
T2 sequence (P35372 whole entry): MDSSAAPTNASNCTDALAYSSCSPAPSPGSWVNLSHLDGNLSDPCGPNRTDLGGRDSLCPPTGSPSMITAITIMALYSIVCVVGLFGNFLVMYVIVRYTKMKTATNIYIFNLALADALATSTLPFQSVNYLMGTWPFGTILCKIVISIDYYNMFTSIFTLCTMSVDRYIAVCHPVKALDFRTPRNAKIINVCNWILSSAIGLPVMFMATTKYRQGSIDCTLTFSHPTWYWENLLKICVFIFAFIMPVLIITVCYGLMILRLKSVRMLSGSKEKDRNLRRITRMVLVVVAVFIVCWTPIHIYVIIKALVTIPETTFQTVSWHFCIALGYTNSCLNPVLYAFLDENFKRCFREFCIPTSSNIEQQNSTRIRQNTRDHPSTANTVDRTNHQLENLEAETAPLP

T1 sequence (P41143 whole entry): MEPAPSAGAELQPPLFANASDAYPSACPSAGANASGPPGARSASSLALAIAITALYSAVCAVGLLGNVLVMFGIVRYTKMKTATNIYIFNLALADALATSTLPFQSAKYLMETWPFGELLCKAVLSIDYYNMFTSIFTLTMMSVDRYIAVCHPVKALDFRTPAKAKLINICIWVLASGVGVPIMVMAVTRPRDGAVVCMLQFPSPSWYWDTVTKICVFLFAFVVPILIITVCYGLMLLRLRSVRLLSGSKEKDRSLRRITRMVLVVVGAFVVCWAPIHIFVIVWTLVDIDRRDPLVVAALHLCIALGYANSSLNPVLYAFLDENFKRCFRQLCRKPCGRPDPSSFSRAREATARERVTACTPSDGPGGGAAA

`C[C@@H]1CN([C@@H](c2cccc(O)c2)c2cccc(C(=O)N3CCN(CCCCCC(=O)O)CC3)c2)[C@@H](C)CN1Cc1cccc(F)c1` [Example 99, 6-(4-{3-[(R)-((2S,5R)-4-(3-Fluorobenzyl)-2,5-dimethyl-piperazin-1-yl)-(3-hydroxy-phenyl)-methyl]-benzoyl}-piperazin-1-yl)-hexanoic acid] was tested, and the Ki (human delta receptor) was 0.0157 µM, the EC50 (mouse vas deferens) was 0.0106 µM and the Seiz. ([1]; 10 mg/kg IV) was 0% 10 mg/kg IV.
`C=CCN1C[C@H](C)N([C@@H](c2cccc(O)c2)c2cccc(C(=O)N3CCN(CCCCCCC(=O)O)CC3)c2)C[C@H]1C` [Example 109, 7-(4-{3-[(R)-((2S,5R)-4-Allyl-2,5-dimethyl-piperazin-1-yl)-(3-hydroxy-phenyl)-methyl]-benzoyl}-piperazin-1-yl)-heptanoic acid] showed a Ki (human delta receptor) of 0.0019 µM, an EC50 (mouse vas deferens) of 0.00748 µM and a Seiz. ([1]; 10 mg/kg IV) of 0% 10 mg/kg IV.
Molecule `C=CCN1C[C@H](C)N([C@@H](c2cccc(O)c2)c2cccc(C(=O)N(C)CC(=O)OCC)c2)C[C@H]1C` [Example 151, ({3-[(R)-((2S,5R)-4-Allyl-2,5-dimethyl-piperazin-1-yl)-(3-hydroxy-phenyl)-methyl]-benzoyl}-methyl-amino)-acetic acid ethyl ester] has a Ki (human mu opioid receptor) of 0.0005 µM, an EC50 (mouse vas deferens) of 0.0016 µM and a Seiz. ([1]; 10 mg/kg IV) of 100% 10 mg/kg IV.
`C=CCN1C[C@H](C)N([C@@H](c2cccc(O)c2)c2cccc(C(=O)N3CCN(Cc4cccc5c4ccn5CC(=O)O)CC3)c2)C[C@H]1C` [Example 107, [4-(4-{3-[(R)-((2S,5R)-4-Allyl-2,5-dimethyl-piperazin-1-yl)-(3-hydroxy-phenyl)-methyl]-benzoyl}-piperazin-1-ylmethyl)-indol-1-yl]-acetic acid] gave a Ki (human delta receptor) of 0.00095 µM, a Ki (human mu opioid receptor) of 0.0065 µM and an EC50 (mouse vas deferens) of 0.00397 µM.
`CCOC(=O)CCCCCN1CCCN(C(=O)c2cccc(C(c3cccc(O)c3)N3C[C@@H](C)N(Cc4ccccc4)C[C@@H]3C)c2)CC1` (some centres unmarked) gave a Ki (human delta receptor) of 0.0037 µM, a Ki (human mu opioid receptor) of 0.0234 µM and an EC50 (mouse vas deferens) of 0.0296 µM.
`C=CCN1C[C@H](C)N([C@@H](c2cccc(O)c2)c2cccc(C(=O)N3CCC[C@H]3C(=O)O)c2)C[C@H]1C` [Example 144, 1-{3-[(R)-((2S,5R)-4-Allyl-2,5-dimethyl-piperazin-1-yl)-(3-hydroxy-phenyl)-methyl]-benzoyl}-pyrrolidine-2-carboxylic acid] was tested, and the Ki (human delta receptor) was 0.00062 µM, the EC50 (mouse vas deferens) was 0.00115 µM and the Seiz. ([1]; 10 mg/kg IV) was 0% 10 mg/kg IV.
In the case of `C[C@@H]1CN(C(c2cccc(O)c2)c2cccc(C(=O)N3CCCN(CCCCCCC(=O)O)CC3)c2)[C@@H](C)CN1Cc1cccc(F)c1` (some centres unmarked), the Ki (human delta receptor) is reported as 0.141 µM, the Ki (human mu opioid receptor) is reported as 0.222 µM and the EC50 (mouse vas deferens) is reported as 0.109 µM.
For `CCOC(=O)CCCCN1CCN(C(=O)c2cccc([C@H](c3cccc(O)c3)N3C[C@@H](C)N(CC4CC4)C[C@@H]3C)c2)CC1` [Example 89, 5-(4-{3-[(R)-((2S,5R)-4-Cyclopropylmethyl-2,5-dimethyl-piperazin-1-yl)-(3-hydroxy-phenyl)-methyl]-benzoyl}-piperazin-1-yl)-pentanoic acid ethyl ester], the Ki (human delta receptor) was 0.0154 µM, the Ki (human mu opioid receptor) was 0.0232 µM and the EC50 (mouse vas deferens) was 0.0927 µM.
In the case of `C[C@@H]1CN([C@@H](c2cccc(O)c2)c2cccc(C(=O)N3CCN(CC(=O)O)CC3)c2)[C@@H](C)CN1Cc1cccc(F)c1` [Example 67, (4-{3-[(R)-[(2S,5R)-4-(3-Fluoro-benzyl)-2,5-dimethyl-piperazin-1-yl]-(3-hydroxy-phenyl)-methyl]-benzoyl}-piperazin-1-yl)-acetic acid], the Ki (human mu opioid receptor) is reported as 0.0107 µM, the EC50 (mouse vas deferens) is reported as 0.00282 µM and the Seiz. ([1]; 10 mg/kg IV) is reported as 0% 10 mg/kg IV.
Molecule `CCOC(=O)CN1CCN(C(=O)c2cccc([C@H](c3cccc(O)c3)N3C[C@@H](C)N(CC4CC4)C[C@@H]3C)c2)CC1` [Example 70, (4-{3-[(R)-((2S,5R)-4-Cyclopropylmethyl-2,5-dimethyl-piperazin-1-yl)-(3-hydroxy-phenyl)-methyl]-benzoyl}-piperazin-1-yl)-acetic acid ethyl ester] has a Ki (human delta receptor) of 0.0035 µM, a Ki (human mu opioid receptor) of 0.0087 µM and an EC50 (mouse vas deferens) of 0.0554 µM.
`CCOC(=O)CCCCCN1CCCN(C(=O)c2cccc(C(c3cccc(O)c3)N3C[C@@H](C)N(CC4CC4)C[C@@H]3C)c2)CC1` (some centres unmarked) showed a Ki (human delta receptor) of 0.0235 µM, a Ki (human mu opioid receptor) of 0.0093 µM and an EC50 (mouse vas deferens) of 1.04 µM.
Work on `C[C@@H]1CN(C(c2cccc(O)c2)c2cccc(C(=O)N3CCCN(CCCCCCC(=O)O)CC3)c2)[C@@H](C)CN1CC1CC1` (some centres unmarked) yielded a Ki (human delta receptor) of 0.0506 µM, a Ki (human mu opioid receptor) of 0.0407 µM and an EC50 (mouse vas deferens) of 0.339 µM.
`CCOC(=O)CCCN1CCCN(C(=O)c2cccc(C(c3cccc(O)c3)N3C[C@@H](C)N(CC4CC4)C[C@@H]3C)c2)CC1` (some centres unmarked) was tested, and the Ki (human delta receptor) was 0.0103 µM, the Ki (human mu opioid receptor) was 0.0039 µM and the EC50 (mouse vas deferens) was 0.0925 µM.
In the case of `CCOC(=O)CN1CCN(C(=O)c2cccc([C@H](c3cccc(O)c3)N3C[C@@H](C)N(Cc4cccc(F)c4)C[C@@H]3C)c2)CC1` [Example 66, (4-{3-[(R)-[(2S,5R)-4-(3-Fluoro-benzyl)-2,5-dimethyl-piperazin-1-yl]-(3-hydroxy-phenyl)-methyl]-benzoyl}-piperazin-1-yl)-acetic acid ethyl ester], the Ki (human delta receptor) is reported as 0.0013 µM, the Ki (human mu opioid receptor) is reported as 0.00505 µM and the EC50 (mouse vas deferens) is reported as 0.022 µM.
Work on `C[C@@H]1CN([C@@H](c2cccc(O)c2)c2cccc(C(=O)N3CCN(CCCCC(=O)O)CC3)c2)[C@@H](C)CN1CC1CC1` [Example 90, 5-(4-{3-[(R)-((2S,5R)-4-Cyclopropylmethyl-2,5-dimethyl-piperazin-1-yl)-(3-hydroxy-phenyl)-methyl]-benzoyl}-piperazin-1-yl)-pentanoic acid] yielded a Ki (human delta receptor) of 0.0325 µM, a Ki (human mu opioid receptor) of 0.409 µM and an EC50 (mouse vas deferens) of 0.0462 µM.
`C=CCN1C[C@H](C)N([C@@H](c2cccc(O)c2)c2cccc(C(=O)N3CCN(CCCCCC(=O)OCC)CC3)c2)C[C@H]1C` [Example 93, 6-(4-{3-[(R)-((2S,5R)-4-Allyl-2,5-dimethyl-piperazin-1-yl)-(3-hydroxy-phenyl)-methyl]-benzoyl}-piperazin-1-yl)-hexanoic acid ethyl ester] gave a Ki (human delta receptor) of 0.0054 µM, a Ki (human mu opioid receptor) of 0.0305 µM and an EC50 (mouse vas deferens) of 0.0588 µM.
For `C[C@@H]1CN([C@@H](c2cccc(O)c2)c2cccc(C(=O)N3CCN(Cc4ccc(C(=O)O)cc4)CC3)c2)[C@@H](C)CN1CC1CC1` [Example 103, 4-(4-{3-[(R)-((2S,5R)-4-Cyclopropylmethyl-2,5-dimethyl-piperazin-1-yl)-(3-hydroxy-phenyl)-methyl]-benzoyl}-piperazin-1-ylmethyl)-benzoic acid], the Ki (human mu opioid receptor) was 0.0847 µM, the EC50 (mouse vas deferens) was 0.187 µM and the Seiz. ([1]; 60 mg/kg PO) was 0% 60 mg/kg PO.
Work on `C[C@@H]1CN(C(c2cccc(O)c2)c2cccc(C(=O)N3CCCN(CCCC(=O)O)CC3)c2)[C@@H](C)CN1CC1CC1` (some centres unmarked) yielded a Ki (human delta receptor) of 0.527 µM, a Ki (human mu opioid receptor) of 0.0265 µM and an EC50 (mouse vas deferens) of 0.0609 µM.
`C=CCN1C[C@H](C)N(C(c2cccc(O)c2)c2cccc(C(=O)N3CCCN(CCCCCCC(=O)O)CC3)c2)C[C@H]1C` (some centres unmarked) showed a Ki (human delta receptor) of 0.0056 µM, a Ki (human mu opioid receptor) of 0.0083 µM and an EC50 (mouse vas deferens) of 0.0349 µM.
In the case of `CCOC(=O)CCCCN1CCN(C(=O)c2cccc([C@H](c3cccc(O)c3)N3C[C@@H](C)N(Cc4cccc(F)c4)C[C@@H]3C)c2)CC1` [Example 87, 5-(4-{3-[(R)-((2S,5R)-4-(3-Fluorobenzyl)-2,5-dimethyl-piperazin-1-yl)-(3-hydroxy-phenyl)-methyl]-benzoyl}-piperazin-1-yl)-pentanoic acid ethyl ester], the Ki (human delta receptor) is reported as 0.0108 µM, the Ki (human mu opioid receptor) is reported as 0.0213 µM and the EC50 (mouse vas deferens) is reported as 0.0362 µM.
`C[C@@H]1CN([C@@H](c2cccc(O)c2)c2cccc(C(=O)N3CCN(CC(=O)O)CC3)c2)[C@@H](C)CN1CC1CC1` [Example 71] gave a Ki (human delta receptor) of 0.0061 µM, a Ki (human mu opioid receptor) of 0.0818 µM and an EC50 (mouse vas deferens) of 0.0358 µM.
Molecule `C=CCN1C[C@H](C)N(C(c2cccc(O)c2)c2cccc(C(=O)N3CCCN(Cc4ccccc4C(=O)O)CC3)c2)C[C@H]1C` (some centres unmarked) has a Ki (human mu opioid receptor) of 0.0014 µM, an EC50 (mouse vas deferens) of 0.0022 µM and a Seiz. ([1]; 10 mg/kg IV) of 40% 10 mg/kg IV.
`CCOC(=O)N1CCN(C(=O)c2cccc([C@H](c3cccc(O)c3)N3C[C@@H](C)N(Cc4cccc(F)c4)C[C@@H]3C)c2)CC1` [Example 60, 4-{3-[(R)-[(2S,5R)-4-(3-Fluorobenzyl)-2,5-dimethylpiperazin-1-yl]-(3-hydroxyphenyl)methyl]benzoyl}piperazine-1-carboxylic acid ethyl ester] showed a Ki (human delta receptor) of 0.0131 µM, a Ki (human mu opioid receptor) of 0.0098 µM and an EC50 (mouse vas deferens) of 0.0472 µM.
Molecule `CCOC(=O)CCCCCCN1CCN(C(=O)c2cccc([C@H](c3cccc(O)c3)N3C[C@@H](C)N(Cc4ccccc4)C[C@@H]3C)c2)CC1` [Example 110, 7-(4-{3-[(R)-((2S,5R)-4-Benzyl-2,5-dimethyl-piperazin-1-yl)-(3-hydroxy-phenyl)-methyl]-benzoyl}-piperazin-1-yl)-heptanoic acid ethyl ester] has an EC50 (mouse vas deferens) of 0.0188 µM and a Seiz. ([1]; 10 mg/kg IV) of 70% 10 mg/kg IV.
`CCOC(=O)CCCCCCN1CCCN(C(=O)c2cccc(C(c3cccc(O)c3)N3C[C@@H](C)N(Cc4cccc(F)c4)C[C@@H]3C)c2)CC1` (some centres unmarked) was tested, and the Ki (human delta receptor) was 0.0133 µM, the Ki (human mu opioid receptor) was 0.007 µM and the EC50 (mouse vas deferens) was 0.245 µM.
Work on `C=CCN1C[C@H](C)N(C(c2cccc(O)c2)c2cccc(C(=O)N3CCCN(Cc4cccc(C(=O)O)c4)CC3)c2)C[C@H]1C` (some centres unmarked) yielded a Ki (human mu opioid receptor) of 0.0055 µM, an EC50 (mouse vas deferens) of 0.00623 µM and a Seiz. ([1]; 10 mg/kg IV) of 0% 10 mg/kg IV.
With `C[C@@H]1CN(C(c2cccc(O)c2)c2cccc(C(=O)N3CCCN(CCCCCC(=O)O)CC3)c2)[C@@H](C)CN1Cc1cccc(F)c1` (some centres unmarked) the Ki (human delta receptor) was 0.0251 µM, the Ki (human mu opioid receptor) was 0.222 µM and the EC50 (mouse vas deferens) was 0.0162 µM.
With `C[C@@H]1CN(C(c2cccc(O)c2)c2cccc(C(=O)N3CCCN(CCCCC(=O)O)CC3)c2)[C@@H](C)CN1CC1CC1` (some centres unmarked) the Ki (human delta receptor) was 0.0621 µM, the Ki (human mu opioid receptor) was 0.558 µM and the EC50 (mouse vas deferens) was 0.0775 µM.
